# Test results published in patent US10501421B1, “Substituted benzimidazoles as modulators of Ras signaling” (VANDERBILT UNIVERSITY, priority 2017, dated 2019).
# Structures can show the parent of a compound that is named as a salt.
# Biological target: Ras GEF SOS (Son of Sevenless) (Homo sapiens, UniProt Q07889)
# Test: SOS-mediated nucleotide exchange on Ras (BODIPY-GDP fluorescence)
# Format: biochemical
# Conditions: SOS-mediated exchange of BODIPY-GDP for GTP on Ras
# Description: Compounds of the present invention were tested for their ability to modify the rate at which Ras exchanges a labeled nucleotide guanosine diphosphate (GDP) analog for guanosine triphosphate (GTP). Briefly, test compounds, then GTP and the Ras GEF SOS (Son of Sevenless) are added to a buffered solution containing Ras protein loaded with BODIPY-GDP. Changes in fluoresence indicating exchange of the labeled GDP for GTP are monitored over time. Raw fluorescence data was fit to a single exponential decay function and derived rates were plotted as mean values. EC50 values were calculated by plotting mean derived rates as a function of compound concentration and fit using a four-parameter dose-response curve. This assay is performed in a method analogous to the assay disclosed in: Burns, M. C.; Sun, Q.; Daniels, R. N.; Camper, D. V.; Kennedy, J. P.; Phan, J.; Olejniczak, E. O.; Lee, T.; Waterson, A. G.; Rossanese, O. W.; Fesik, S. W. “Approach for targeting Ras with small molecules that activate SOS-mediated nucleotide exchange” Proc. Natl. Acad. Sci. 2014; 11(9): 3401-3406. PMCID: PMC3948241.
# Ras GEF SOS (Son of Sevenless), sequence (Q07889 564-1049 limits assumed): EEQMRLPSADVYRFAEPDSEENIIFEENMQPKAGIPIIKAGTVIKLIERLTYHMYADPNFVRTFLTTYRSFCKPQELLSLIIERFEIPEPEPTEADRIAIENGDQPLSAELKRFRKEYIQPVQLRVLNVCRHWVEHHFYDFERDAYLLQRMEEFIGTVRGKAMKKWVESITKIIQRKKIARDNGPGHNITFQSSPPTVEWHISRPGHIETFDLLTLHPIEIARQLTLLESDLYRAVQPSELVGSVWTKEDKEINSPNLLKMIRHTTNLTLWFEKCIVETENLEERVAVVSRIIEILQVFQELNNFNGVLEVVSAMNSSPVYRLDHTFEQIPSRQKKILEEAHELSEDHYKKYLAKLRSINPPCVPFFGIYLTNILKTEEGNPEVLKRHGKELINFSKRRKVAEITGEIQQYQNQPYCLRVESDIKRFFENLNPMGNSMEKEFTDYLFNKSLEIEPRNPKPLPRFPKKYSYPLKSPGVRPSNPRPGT
# Ras GEF SOS (Son of Sevenless), sequence (P01112 1-166 partner limits assumed): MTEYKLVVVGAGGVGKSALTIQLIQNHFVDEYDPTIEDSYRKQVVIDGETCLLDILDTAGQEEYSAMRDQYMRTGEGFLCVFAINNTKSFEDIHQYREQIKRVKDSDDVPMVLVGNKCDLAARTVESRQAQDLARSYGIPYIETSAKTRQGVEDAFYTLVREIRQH
row,Structure (SMILES),EC50
1,"Cc1cc2nc(C3CCNCC3)n(Cc3ccc(F)c(Cl)c3)c2cc1C [Example 59, 1-(3-chloro-4-fluorobenzyl)-5,6-dimethyl-2-(piperidin-4-yl)-1H-benzo[d]imidazazole trifluoroacetate]",5 to 30 µM
2,"Cc1ccc2nc(NCCN)n(Cc3ccc(F)c(Cl)c3)c2c1 [Example 60, N^1-(1-(3-chloro-4-fluorobenzyl)-6-methyl-1H-benzo[d]imidazol-2-yl)ethane-1,2-diamine trifluoroacetate]",1 to 5 µM
3,"Fc1ccc(Cn2c(N3CCNCC3)nc3ccc(C(F)(F)F)cc32)cc1Cl [Example 71, 1-(3-chloro-4-fluorobenzyl)-2-(piperazin-1-yl)-6-(trifluoromethyl)-1H-benzo[d]imidazole trifluoroacetate]",1 to 5 µM
4,"NCCc1cccc2c1nc(N1CCNCC1)n2Cc1cc(F)cc(F)c1 [Example 99, 2-(1-(3,5-difluorobenzyl)-2-(piperazin-1-yl)-1H-benzo[d]imidazol-4-yl)ethan-1-amine trifluoroacetate]",5 to 30 µM
5,"NCCc1cccc2c1nc(N1CCNCC1)n2Cc1ccc(C(F)(F)F)cc1 [Example 100, 2-(2-(piperazin-1-yl)-1-(4-(trifluoromethyl)benzyl)-1H-benzo[d]imidazol-4-yl)ethan-1-amine trifluoroacetate]",1 to 5 µM
6,"Cc1cc2c(nc(NCCN)n2Cc2cccc(C#N)c2)c(-c2ccccc2Cl)c1C [Example 117, 3-((2-((2-aminoethyl)amino)-4-(2-chlorophenyl)-5,6-dimethyl-1H-benzo[d]imidazol-1-yl)methyl)benzonitrile trifluoroacetate]",1 to 5 µM
7,"Cc1cc2c(nc(NCCN)n2Cc2ccc(F)c(Cl)c2)c(CN2CCCC2)c1C [Example 146, N^1-(1-(3-chloro-4-fluorobenzyl)-5,6-dimethyl-4-(pyrrolidin-1-ylmethyl)-1H-benzo[d]imidazol-2-yl)ethane-1,2-diamine trifluoroacetate]",1 to 5 µM
8,"CC(C)N1CC[C@@H](C(=O)c2ccccc2)[C@H]1c1cc(Cl)cc2c1nc(N1CCNCC1)n2Cc1ccc(F)c(Cl)c1 [Example 152, ((2S,3R)-2-(6-chloro-1-(3-chloro-4-fluorobenzyl)-2-(piperazin-1-yl)-1H-benzo[d]imidazol-4-yl)-1-isopropylpyrrolidin-3-yl)(phenyl)methanone trifluoroacetate]",1 to 5 µM
9,"Cc1cc(Cn2c(N3CCNCC3)nc3c(-c4ccccc4)nccc32)ccc1F [Example 220, 1-(4-fluoro-3-methylbenzyl)-4-phenyl-2-(piperazin-1-yl)-1H-imidazo[4,5-c]pyridine]",5 to 30 µM
10,"Cc1cc(Cn2c(NC3CCNC3)nc3c(-c4ccccc4)nccc32)ccc1F (centres unmarked) [Example 222, 1-(4-fluoro-3-methylbenzyl)-4-phenyl-N-(pyrrolidin-3-yl)-1H-imidazo[4,5-c]pyridin-2-amine]",5 to 30 µM
11,"Cc1cc2c(nc(N3CCNCC3)n2Cc2ccc(F)c(C)c2)c(CN2CCCC2)n1 [Example 236, 1-(4-fluoro-3-methylbenzyl)-6-methyl-2-(piperazin-1-yl)-4-(pyrrolidin-1-ylmethyl)-1H-imidazo[4,5-c]pyridine]",30 to 100 µM
12,"Cc1cnc2nc(N3CCNCC3)n(Cc3ccc(F)c(Cl)c3)c2c1 [Example 242, 1-(3-chloro-4-fluorobenzyl)-6-methyl-2-(piperazin-1-yl)-1H-imidazo[4,5-b]pyridine]",1 to 5 µM
13,"Cc1cnc2ncn(Cc3ccc(F)c(Cl)c3)c2c1 [Example 243, 1-(3-chloro-4-fluorobenzyl)-6-methyl-1H-imidazo[4,5-b]pyridine]",30 to 100 µM
14,"NCCNc1nc2ncccc2n1Cc1ccc(F)cc1 [Example 250, N^1-(1-(4-fluorobenzyl)-1H-imidazo[4,5-b]pyridin-2-yl)ethane-1,2-diamine]",5 to 30 µM
15,"Cc1ccc2c(n1)nc(NCCN)n2Cc1ccc(F)c(Cl)c1 [Example 257, N^1-(1-(3-chloro-4-fluorobenzyl)-5-methyl-1H-imidazo[4,5-b]pyridin-2-yl)ethane-1,2-diamine]",5 to 30 µM
16,"Oc1ccc(-c2cccc3c2nc(N2CCNCC2)n3Cc2ccc(F)c(Cl)c2)cc1 [Example 264, 4-[1-[(3-chloro-4-fluorophenyl)methyl]-2-piperazin-1-ylbenzimidazol-4-yl]phenol]",5 to 30 µM
17,"Cc1ccc2nc([C@@H](N)C(C)C)n(Cc3cccc(Cl)c3)c2c1 [Example 270, (S)-1-(1-(3-chlorobenzyl)-6-methyl-1H-benzo[d]imidazol-2-yl)-2-methylpropan-1-amine]",30 to 100 µM
18,"Cc1ccc2nc([C@@H](N)Cc3ccc(O)cc3)n(Cc3ccc(F)cc3)c2c1 [Example 272, 4-[(2S)-2-amino-2-[1-[(4-fluorophenyl)methyl]-6-methylbenzimidazol-2-yl]ethyl]phenol]",30 to 100 µM

# Next, values leading:
row,EC50,Structure (SMILES)
1,30 to 100 µM,"Cc1cc2nc(-c3ccncc3)n(Cc3cc(F)cc(F)c3)c2cc1C [Example 53, 1-(3,5-difluorobenzyl)-5,6-dimethyl-2-(pyridin-4-yl)-1H-benzo[d]imidazole]"
2,30 to 100 µM,"Cc1cc2nc(-c3ccncc3)n(Cc3ccc(F)c(Cl)c3)c2cc1C [Example 54, 1-(3-chloro-4-fluorobenzyl)-5,6-dimethyl-2-(pyridin-4-yl)-1H-benzo[d]imidazole]"
3,5 to 30 µM,"Fc1ccc(Cn2c(C3CCNCC3)nc3ccccc32)cc1Cl [Example 55, 1-(3-chloro-4-fluorobenzyl)-2-(piperidin-4-yl)-1H-benzo[d]imidazole trifluoroacetate]"
4,5 to 30 µM,"Fc1cc(F)cc(Cn2c(C3CCNCC3)nc3ccccc32)c1 [Example 57, 1-(3,5-difluorobenzyl)-2-(piperidin-4-yl)-1H-benzo[d]imidazole trifluoroacetate]"
5,1 to 5 µM,"COc1ccc(-c2cccc3c2nc(N2CCNCC2)n3Cc2ccc(F)c(Cl)c2)cc1OC [Example 88, 1-(3-chloro-4-fluorobenzyl)-4-(3,4-dimethoxyphenyl)-2-(piperazin-1-yl)-1H-benzo[d]imidazole]"
6,30 to 100 µM,"Cc1cc(CN2CCCCC2)c2ncn(Cc3ccc(F)c(Cl)c3)c2c1 [Example 144, 1-(3-chloro-4-fluorobenzyl)-6-methyl-4-(piperidin-1-ylmethyl)-1H-benzo[d]imidazole trifluoroacetate]"
7,5 to 30 µM,"COc1ccccc1C#Cc1ccccc1-c1cc(Cl)cc2c1nc(N1CCNCC1)n2Cc1cc(C)c(F)c(C)c1 [Example 186, 6-chloro-1-(4-fluoro-3,5-dimethylbenzyl)-4-(2-((2-methoxyphenyl)ethynyl)phenyl)-2-(piperazin-1-yl)-1H-benzo[d]imidazole trifluoroacetate]"
8,5 to 30 µM,"Cc1cc2c(cc1C)N(Cc1cccc(Br)c1)C1=NCCCN12 [Example 215, 10-(3-bromobenzyl)-7,8-dimethyl-2,3,4,10-tetrahydrobenzo[4,5]imidazo[1,2-a]pyrimidine]"
9,30 to 100 µM,"Cc1cc(Cn2c(NCCN)nc3c(-c4ccccc4)nccc32)ccc1F [Example 221, N^1-(1-(4-fluoro-3-methylbenzyl)-4-phenyl-1H-imidazo[4,5-c]pyridin-2-yl)ethane-1,2-diamine]"
10,30 to 100 µM,"Cc1cc2c(nc(N3CCNCC3)n2Cc2ccc(F)c(C)c2)c(CN2CCOCC2)n1 [Example 237, 4-((1-(4-fluoro-3-methylbenzyl)-6-methyl-2-(piperazin-1-yl)-1H-imidazo[4,5-c]pyridin-4-yl)methyl)morpholine]"
11,30 to 100 µM,"Cc1cc2c(nc(N3CCNCC3)n2Cc2ccc(F)c(C)c2)c(CN2CCC(O)CC2)n1 [Example 238, 1-((1-(4-fluoro-3-methylbenzyl)-6-methyl-2-(piperazin-1-yl)-1H-imidazo[4,5-c]pyridin-4-yl)methyl)piperidin-4-ol]"
12,30 to 100 µM,"C=Cc1nc(C)cc2c1nc(N1CCNCC1)n2Cc1ccc(F)c(C)c1 [Example 239, 1-(4-fluoro-3-methylbenzyl)-6-methyl-2-(piperazin-1-yl)-4-vinyl-1H-imidazo[4,5-c]pyridine]"
13,5 to 30 µM,"Cc1cnc2nc(N3CCNCC3)n(Cc3ccc(F)c(C)c3)c2c1 [Example 244, 1-(4-fluoro-3-methylbenzyl)-6-methyl-2-(piperazin-1-yl)-1H-imidazo[4,5-b]pyridine]"
14,5 to 30 µM,"Fc1ccc(Cn2c(N3CCNCC3)nc3ncccc32)cc1 [Example 249, 1-(4-fluorobenzyl)-2-(piperazin-1-yl)-1H-imidazo[4,5-b]pyridine]"
15,30 to 100 µM,"Fc1ccc(Cn2cnc3ncccc32)cc1 [Example 253, 1-(4-fluorobenzyl)-1H-imidazo[4,5-b]pyridine]"
16,30 to 100 µM,"Clc1ccc(Cn2c(Cl)nc3ncccc32)cc1 [Example 254, 2-chloro-1-(4-chlorobenzyl)-1H-imidazo[4,5-b]pyridine]"
17,30 to 100 µM,"Clc1ccc(Cn2cnc3ncccc32)cc1 [Example 255, 1-(4-chlorobenzyl)-1H-imidazo[4,5-b]pyridine]"
18,5 to 30 µM,"Cc1ccc2c(n1)nc(N1CCNCC1)n2Cc1ccc(F)c(Cl)c1 [Example 256, 1-(3-chloro-4-fluorobenzyl)-5-methyl-2-(piperazin-1-yl)-1H-imidazo[4,5-b]pyridine]"
19,30 to 100 µM,"Cc1cc2nc(NC3CCNCC3)n(Cc3ccc(F)c(Cl)c3)c2cc1C [Example 269, 1-[(3-chloro-4-fluorophenyl)methyl]-5,6-dimethyl-N-piperidin-4-ylbenzimidazol-2-amine]"
20,30 to 100 µM,"Cc1ccc2nc([C@H](N)CO)n(Cc3cccc(Cl)c3)c2c1 [Example 271, (2S)-2-amino-2-[1-[(3-chlorophenyl)methyl]-6-methylbenzimidazol-2-yl]ethanol]"
